Reference: ChEMBL document CHEMBL3885861, “Open TG-GATES”

Species: Rattus norvegicus
Assay: Open TG-GATES - Regimen: Single
Assay type: toxicity, organism-based, Sprague-Dawley
Parameters: regimen Single, gender Male, age 6 weeks
Settings: in vivo, po, route gavage; for APTT / Bas / Eos / Fbg / Hb / Ht / Lym / MCH / MCHC / MCV / Mono / Neu / PT / Plat / RBC / Ret / WBC: tissue Blood; for A/G / ALP / ALT / AST / BUN / CRE / Ca / Cl / DBIL / GLC / IP / K / LDH / Na / PL / RALB / TBIL / TC / TG / TP / gamma-GTP: tissue Plasma
[1] = 30 mg/kg, 3 h, dose level Middle
[2] = 30 mg/kg, 6 h, dose level Middle
[3] = 30 mg/kg, 9 h, dose level Middle
[4] = 30 mg/kg, 24 h, dose level Middle
[5] = 100 mg/kg, 3 h, dose level High
[6] = 100 mg/kg, 6 h, dose level High
[7] = 100 mg/kg, 9 h, dose level High
[8] = 100 mg/kg, 24 h, dose level High

Cn1cc[nH]c1=S [METHIMAZOLE]
TERMINAL_BW [1]: 210.9 g
APTT [1]: 22.2 s
Bas [1]: 0%
Eos [1]: 1%
Fbg [1]: 305 mg/dL
Hb [1]: 14.3 g/dL
Ht [1]: 40.3%
Lym [1]: 73.2%
MCH [1]: 21.7 pg
MCHC [1]: 35.4%
MCV [1]: 61.4 fL
Mono [1]: 3%
Neu [1]: 21.8%
PT [1]: 15.9 s
Plat [1]: 120.3 x10_4/uL
RBC [1]: 657.4 x10_4/ul
Ret [1]: 8%
WBC [1]: 65.4 x10_2/uL
A/G [1]: 1.1
ALP [1]: 1707.8 IU/L
ALT [1]: 42.8 IU/L
AST [1]: 72.2 IU/L
BUN [1]: 10.4 mg/dL
CRE [1]: 0.1 mg/dL
Ca [1]: 10.7 mg/dL
Cl [1]: 105 meq/L
DBIL [1]: 0 mg/dL
GLC [1]: 186.4 mg/dL
IP [1]: 10.1 mg/dL
K [1]: 4.3 meq/L
LDH [1]: 250.2 IU/L
Na [1]: 141.6 meq/L
PL [1]: 146 mg/dL
RALB [1]: 2.9 g/dL
TBIL [1]: 0.006 mg/dL
TC [1]: 82.4 mg/dL
TG [1]: 64.4 mg/dL
TP [1]: 5.7 g/dL
gamma-GTP [1]: 1 IU/L
TERMINAL_BW [2]: 208.1 g
APTT [2]: 22.7 s
Bas [2]: 0%
Eos [2]: 1%
Fbg [2]: 316.8 mg/dL
Hb [2]: 14 g/dL
Ht [2]: 40%
Lym [2]: 73.6%
MCH [2]: 22 pg
MCHC [2]: 35%
MCV [2]: 62.7 fL
Mono [2]: 2.8%
Neu [2]: 21.8%
PT [2]: 16.2 s
Plat [2]: 123.7 x10_4/uL
RBC [2]: 637.2 x10_4/ul
Ret [2]: 8.4%
WBC [2]: 68.1 x10_2/uL
A/G [2]: 1.2
ALP [2]: 1225.2 IU/L
ALT [2]: 46.2 IU/L
AST [2]: 71.8 IU/L
BUN [2]: 11.8 mg/dL
CRE [2]: 0.1 mg/dL
Ca [2]: 10.6 mg/dL
Cl [2]: 103.4 meq/L
DBIL [2]: 0.002 mg/dL
GLC [2]: 196.2 mg/dL
IP [2]: 9.4 mg/dL
K [2]: 4.2 meq/L
LDH [2]: 329.8 IU/L
Na [2]: 140.4 meq/L
PL [2]: 141.2 mg/dL
RALB [2]: 2.9 g/dL
TBIL [2]: 0.01 mg/dL
TC [2]: 79.8 mg/dL
TG [2]: 45 mg/dL
TP [2]: 5.5 g/dL
gamma-GTP [2]: 1 IU/L
TERMINAL_BW [3]: 205.3 g
APTT [3]: 22.1 s
Bas [3]: 0%
Eos [3]: 1.2%
Fbg [3]: 299.8 mg/dL
Hb [3]: 13.7 g/dL
Ht [3]: 38.8%
Lym [3]: 75.4%
MCH [3]: 21.5 pg
MCHC [3]: 35.4%
MCV [3]: 60.8 fL
Mono [3]: 2.4%
Neu [3]: 20.2%
PT [3]: 15.7 s
Plat [3]: 121.8 x10_4/uL
RBC [3]: 640 x10_4/ul
Ret [3]: 8.1%
WBC [3]: 70 x10_2/uL
A/G [3]: 1.2
ALP [3]: 1422 IU/L
ALT [3]: 43.8 IU/L
AST [3]: 71.4 IU/L
BUN [3]: 12.8 mg/dL
CRE [3]: 0.1 mg/dL
Ca [3]: 10.5 mg/dL
Cl [3]: 105.2 meq/L
DBIL [3]: 0.004 mg/dL
GLC [3]: 198 mg/dL
IP [3]: 8.7 mg/dL
K [3]: 3.8 meq/L
LDH [3]: 353.6 IU/L
Na [3]: 140.6 meq/L
PL [3]: 155.8 mg/dL
RALB [3]: 3 g/dL
TBIL [3]: 0.012 mg/dL
TC [3]: 85.4 mg/dL
TG [3]: 81 mg/dL
TP [3]: 5.6 g/dL
gamma-GTP [3]: 1 IU/L
TERMINAL_BW [4]: 212.4 g
APTT [4]: 21 s
Bas [4]: 0%
Eos [4]: 1%
Fbg [4]: 320.4 mg/dL
Hb [4]: 13.9 g/dL
Ht [4]: 39.6%
Lym [4]: 76.6%
MCH [4]: 21.8 pg
MCHC [4]: 35.2%
MCV [4]: 62 fL
Mono [4]: 2.4%
Neu [4]: 19%
PT [4]: 16.3 s
Plat [4]: 115.8 x10_4/uL
RBC [4]: 640 x10_4/ul
Ret [4]: 7.8%
WBC [4]: 84 x10_2/uL
A/G [4]: 1.1
ALP [4]: 1634.4 IU/L
ALT [4]: 42.4 IU/L
AST [4]: 64.6 IU/L
BUN [4]: 15.4 mg/dL
CRE [4]: 0.1 mg/dL
Ca [4]: 10.7 mg/dL
Cl [4]: 106 meq/L
DBIL [4]: 0 mg/dL
GLC [4]: 180.6 mg/dL
IP [4]: 7 mg/dL
K [4]: 4.4 meq/L
LDH [4]: 211.4 IU/L
Na [4]: 141.6 meq/L
PL [4]: 158.6 mg/dL
RALB [4]: 3 g/dL
TBIL [4]: 0.002 mg/dL
TC [4]: 84.6 mg/dL
TG [4]: 131.4 mg/dL
TP [4]: 5.6 g/dL
gamma-GTP [4]: 1 IU/L
TERMINAL_BW [5]: 213.6 g
APTT [5]: 21.9 s
Bas [5]: 0%
Eos [5]: 1.2%
Fbg [5]: 315 mg/dL
Hb [5]: 13.9 g/dL
Ht [5]: 39.4%
Lym [5]: 74%
MCH [5]: 21.8 pg
MCHC [5]: 35.2%
MCV [5]: 61.9 fL
Mono [5]: 2%
Neu [5]: 23%
PT [5]: 15.4 s
Plat [5]: 121.9 x10_4/uL
RBC [5]: 636.8 x10_4/ul
Ret [5]: 8.7%
WBC [5]: 50 x10_2/uL
A/G [5]: 1.2
ALP [5]: 1490.2 IU/L
ALT [5]: 55 IU/L
AST [5]: 72.8 IU/L
BUN [5]: 11.8 mg/dL
CRE [5]: 0.1 mg/dL
Ca [5]: 10.6 mg/dL
Cl [5]: 102.8 meq/L
DBIL [5]: 0.002 mg/dL
GLC [5]: 191.2 mg/dL
IP [5]: 9.7 mg/dL
K [5]: 4.2 meq/L
LDH [5]: 351.4 IU/L
Na [5]: 140 meq/L
PL [5]: 153.6 mg/dL
RALB [5]: 3 g/dL
TBIL [5]: 0.008 mg/dL
TC [5]: 89.2 mg/dL
TG [5]: 62.8 mg/dL
TP [5]: 5.6 g/dL
gamma-GTP [5]: 1 IU/L
TERMINAL_BW [6]: 210.2 g
APTT [6]: 22.6 s
Bas [6]: 0%
Eos [6]: 0.8%
Fbg [6]: 306.6 mg/dL
Hb [6]: 14.1 g/dL
Ht [6]: 40.5%
Lym [6]: 72.4%
MCH [6]: 21.4 pg
MCHC [6]: 34.7%
MCV [6]: 61.7 fL
Mono [6]: 3%
Neu [6]: 23%
PT [6]: 16 s
Plat [6]: 117.2 x10_4/uL
RBC [6]: 657.2 x10_4/ul
Ret [6]: 7.8%
WBC [6]: 83.4 x10_2/uL
A/G [6]: 1.1
ALP [6]: 1474.2 IU/L
ALT [6]: 46.2 IU/L
AST [6]: 66.8 IU/L
BUN [6]: 10 mg/dL
CRE [6]: 0.1 mg/dL
Ca [6]: 10.5 mg/dL
Cl [6]: 104.4 meq/L
DBIL [6]: 0.002 mg/dL
GLC [6]: 193 mg/dL
IP [6]: 9.1 mg/dL
K [6]: 4.2 meq/L
LDH [6]: 344.8 IU/L
Na [6]: 140.2 meq/L
PL [6]: 136.6 mg/dL
RALB [6]: 2.9 g/dL
TBIL [6]: 0.014 mg/dL
TC [6]: 80.2 mg/dL
TG [6]: 52.4 mg/dL
TP [6]: 5.5 g/dL
gamma-GTP [6]: 1.2 IU/L
TERMINAL_BW [7]: 206.1 g
APTT [7]: 21.2 s
Bas [7]: 0%
Eos [7]: 1%
Fbg [7]: 319.2 mg/dL
Hb [7]: 13.8 g/dL
Ht [7]: 39%
Lym [7]: 71.4%
MCH [7]: 21.8 pg
MCHC [7]: 35.3%
MCV [7]: 61.7 fL
Mono [7]: 2.8%
Neu [7]: 23.4%
PT [7]: 16.5 s
Plat [7]: 134.8 x10_4/uL
RBC [7]: 631.2 x10_4/ul
Ret [7]: 8.1%
WBC [7]: 88.6 x10_2/uL
A/G [7]: 1.2
ALP [7]: 1403 IU/L
ALT [7]: 47 IU/L
AST [7]: 69.8 IU/L
BUN [7]: 12.6 mg/dL
CRE [7]: 0.1 mg/dL
Ca [7]: 10.4 mg/dL
Cl [7]: 105.6 meq/L
DBIL [7]: 0.004 mg/dL
GLC [7]: 195.2 mg/dL
IP [7]: 8.6 mg/dL
K [7]: 4.2 meq/L
LDH [7]: 309.6 IU/L
Na [7]: 140.6 meq/L
PL [7]: 144.4 mg/dL
RALB [7]: 2.9 g/dL
TBIL [7]: 0.014 mg/dL
TC [7]: 78.6 mg/dL
TG [7]: 71.6 mg/dL
TP [7]: 5.5 g/dL
gamma-GTP [7]: 1 IU/L
TERMINAL_BW [8]: 209.2 g
APTT [8]: 20.8 s
Bas [8]: 0%
Eos [8]: 1.2%
Fbg [8]: 303.8 mg/dL
Hb [8]: 14.1 g/dL
Ht [8]: 40%
Lym [8]: 76.8%
MCH [8]: 21.6 pg
MCHC [8]: 35.3%
MCV [8]: 61.1 fL
Mono [8]: 2.4%
Neu [8]: 18.8%
PT [8]: 16.5 s
Plat [8]: 125.7 x10_4/uL
RBC [8]: 655.6 x10_4/ul
Ret [8]: 7.6%
WBC [8]: 63.5 x10_2/uL
A/G [8]: 1.2
ALP [8]: 1903.8 IU/L
ALT [8]: 44.2 IU/L
AST [8]: 55.6 IU/L
BUN [8]: 12.6 mg/dL
CRE [8]: 0.1 mg/dL
Ca [8]: 10.9 mg/dL
Cl [8]: 106.4 meq/L
DBIL [8]: 0.004 mg/dL
GLC [8]: 170 mg/dL
IP [8]: 7.2 mg/dL
K [8]: 4.3 meq/L
LDH [8]: 263 IU/L
Na [8]: 142 meq/L
PL [8]: 159.8 mg/dL
RALB [8]: 2.9 g/dL
TBIL [8]: 0.016 mg/dL
TC [8]: 84.6 mg/dL
TG [8]: 129.6 mg/dL
TP [8]: 5.4 g/dL
gamma-GTP [8]: 1 IU/L
